Several values for one entry are separate records, joined by “and”; a condition that tells them apart may be missing. Equal entries are not always repeated.
What was measured:
[1] = test system: Ed 45 288 transgenic shoots (JH5 vector); assay: Survival of transgenic shoots on medium with G-418; assay type: in vivo, Linum usitatissimum; settings: of four shoots
Excerpt: (§1) Preferably, testing the two antibiotic system in the transformation experiments is done using kanamycin for the initial selection and G-418 for the second and third rounds of selection (FIG. 1).

[2] = test system: McGregor 324 transgenic shoots (JH5 vector); assay: Survival of transgenic shoots on medium with G-418; assay type: in vivo, Linum usitatissimum; settings: of four shoots
Excerpt: as §1

[3] = test system: Flanders 301 transgenic shoots (JH5 vector); assay: Survival of transgenic shoots on medium with G-418; assay type: in vivo, Linum usitatissimum; settings: of four shoots
Excerpt: as §1

[4] = test system: hypocotyl segments used for the Agrobacterium tumefaciens inoculation; assay: Sensitivity of hypocotyl segments to selection antibiotics; assay type: in vivo, flax; settings: selective antibiotic for the initial transformation
Excerpt: as §1

[5] = test system: McGregor WT shoots; assay: Survival of wild-type shoots on medium with G-418; assay type: in vivo, Linum usitatissimum; settings: of four shoots
Excerpt: as §1

[6] = test system: Flanders WT shoots; assay: Survival of wild-type shoots on medium with G-418; assay type: in vivo, Linum usitatissimum; settings: of four shoots
Excerpt: as §1

[7] = test system: Ed 45 WT shoots; assay: Survival of wild-type shoots on medium with G-418; assay type: in vivo, Linum usitatissimum; settings: of four shoots
[8] = test system: wild-type flax regenerated shoots; assay: Tolerance of regenerated shoots to G-418; assay type: in vivo; settings: tests using regenerated shoots
Excerpt: as §1

CN[C@@H]1[C@@H](O)[C@@H](O[C@@H]2[C@@H](O)[C@H](O[C@H]3O[C@H]([C@@H](C)O)[C@@H](O)[C@H](O)[C@H]3N)[C@@H](N)C[C@H]2N)OC[C@]1(C)O [G-418]
Number of shoots surviving 24 days on medium with G-418 ([1]; G-418 10 mg/l): 4
Number of shoots surviving 24 days on medium with G-418 ([1]; G-418 20 mg/l): 4
Number of shoots surviving 24 days on medium with G-418 ([1]; G-418 30 mg/l): 4
Number of shoots surviving 24 days on medium with G-418 ([1]; G-418 40 mg/l): 4
Number of shoots surviving 24 days on medium with G-418 ([1]; G-418 50 mg/l): 4 and 3
Number of shoots surviving 24 days on medium with G-418 ([1]; G-418 70 mg/l): 4
Number of shoots surviving 24 days on medium with G-418 ([1]; G-418 100 mg/l): 3 and 4
Number of shoots surviving 24 days on medium with G-418 ([2]; G-418 10 mg/l): 4
Number of shoots surviving 24 days on medium with G-418 ([2]; G-418 20 mg/l): 4
Number of shoots surviving 24 days on medium with G-418 ([2]; G-418 30 mg/l): 4
Number of shoots surviving 24 days on medium with G-418 ([2]; G-418 40 mg/l): 4
Number of shoots surviving 24 days on medium with G-418 ([2]; G-418 50 mg/l): 4
Number of shoots surviving 24 days on medium with G-418 ([2]; G-418 70 mg/l): 4
Number of shoots surviving 24 days on medium with G-418 ([2]; G-418 100 mg/l): 4
Number of shoots surviving 24 days on medium with G-418 ([2]; G-418 150 mg/l): 4 and 3
Number of shoots surviving 24 days on medium with G-418 ([3]; G-418 10 mg/l): 4
Number of shoots surviving 24 days on medium with G-418 ([3]; G-418 20 mg/l): 4
Number of shoots surviving 24 days on medium with G-418 ([3]; G-418 30 mg/l): 3 and 4
Number of shoots surviving 24 days on medium with G-418 ([3]; G-418 40 mg/l): 4
Number of shoots surviving 24 days on medium with G-418 ([3]; G-418 50 mg/l): 4
Number of shoots surviving 24 days on medium with G-418 ([3]; G-418 70 mg/l): 4
Number of shoots surviving 24 days on medium with G-418 ([3]; G-418 100 mg/l): 4 and 3
Number of shoots surviving 24 days on medium with G-418 ([3]; G-418 150 mg/l): 2 and 4
Number of shoots surviving 24 days on medium with G-418 ([3]; G-418 200 mg/l): 1 and 2
Callus production with the antibiotic as selective agent [4]: no callus was produced
Number of shoots surviving 24 days on medium with G-418 ([5]; G-418 10 mg/l): 4
Number of shoots surviving 24 days on medium with G-418 ([5]; G-418 20 mg/l): 4 and 3
Number of shoots surviving 24 days on medium with G-418 ([5]; G-418 30 mg/l): 2
Number of shoots surviving 24 days on medium with G-418 ([5]; G-418 50 mg/l): 0
Number of shoots surviving 24 days on medium with G-418 ([5]; G-418 70 mg/l): 0
Number of shoots surviving 24 days on medium with G-418 ([5]; G-418 100 mg/l): 0
Number of shoots surviving 24 days on medium with G-418 ([5]; G-418 150 mg/l): 0
Number of shoots surviving 24 days on medium with G-418 ([5]; G-418 200 mg/l): 0
Number of shoots surviving 24 days on medium with G-418 ([6]; G-418 10 mg/l): 4
Number of shoots surviving 24 days on medium with G-418 ([6]; G-418 20 mg/l): 3 and 4
Number of shoots surviving 24 days on medium with G-418 ([6]; G-418 50 mg/l): 0
Number of shoots surviving 24 days on medium with G-418 ([6]; G-418 70 mg/l): 0
Number of shoots surviving 24 days on medium with G-418 ([6]; G-418 100 mg/l): 0
Number of shoots surviving 24 days on medium with G-418 ([6]; G-418 150 mg/l): 0
Number of shoots surviving 24 days on medium with G-418 ([6]; G-418 200 mg/l): 0
Number of shoots surviving 24 days on medium with G-418 ([7]; G-418 10 mg/l): 4
Number of shoots surviving 24 days on medium with G-418 ([7]; G-418 20 mg/l): 1 and 2
Number of shoots surviving 24 days on medium with G-418 ([7]; G-418 30 mg/l): 1 and 2
Number of shoots surviving 24 days on medium with G-418 ([7]; G-418 40 mg/l): 0
Number of shoots surviving 24 days on medium with G-418 ([7]; G-418 50 mg/l): 0
Number of shoots surviving 24 days on medium with G-418 ([7]; G-418 70 mg/l): 0
Number of shoots surviving 24 days on medium with G-418 ([7]; G-418 100 mg/l): 0
Number of shoots surviving 24 days on medium with G-418 ([7]; G-418 150 mg/l): 0
Number of shoots surviving 24 days on medium with G-418 ([7]; G-418 200 mg/l): 0
Natural tolerance of wild-type flax [8]: no natural tolerance

From US20030074686A1, “Novel method for the generation and selection of transgenic linseed/flax plants” (priority 1999, published 2003)
